# Test results taken from patent publication US20230192653A1, “Novel Therapeutic Methods” (GUANGZHOU MAXINOVEL PHARMACEUTICALS CO., LTD., priority 2020, published 2023).
# Values joined by “and” are separate entries in the source; they are usually repeats but may differ in a detail not shown here. Equal entries are not always repeated. “Also recorded” adds a separate entry of the source.
# Columns and labels:
# Format in all cases: in vivo, human
# [1] = test system: Liver Cancers (patient tumor cells in mini-PDX capsules); test: Mini-PDX assay, liver cancers; conditions: Compound 1 12 mg per kg oral once daily 7 days, effective = P ≤ 0.05, per patient sample
# Experimental: (§1) A mini patient-derived xenograft (mini-PDX) is used to assess the sensitivity of different tumors to treatment with Compound 1 (MAX-40279). In this experiment, clinical tumor samples from patients are treated in the mini-PDX by oral administration of Compound 1, and FGFR1OP2 expression level in those samples is analyzed.
# (§2) Tumor tissue acquisition is approved by the ethics committees of each participating hospital and agreed to by each patient via written informed consent and is carried out according to state and institutional regulations on experimental use of human tissues. The patient samples are corrected if tumors >500 mm^3 in size with a necrotic area <30% are used. […]
# (§3) Thereafter, the implanted capsules are removed, and tumor cell proliferation is evaluated using the CellTiter Glo Luminescent Cell Viability Assay kit (G7571, Promega, Madison, Wis., US) as instructed by the manufacturer. Luminescence is measured in terms of relative luminance unit (RLU) using a spectrophotometer (SpectraMax M3, Molecular Devices, Sunnyvale, Calif., US). Tumor cell growth inhibition (TCGI) (%) is calculated using the formula: TCGI %=(1−[mean RLU of the treatment group on day 7-mean RLU on day 0]/[Mean RLU of vehicle group on day 7−Mean RLU on day 0])×100%, Each experiment is done in sextuplicate and mean values are reported. […]
# [2] = test system: clinical tumor samples from patients; test: Mini-PDX assay, all tumor samples from patients
# Experimental: FIG. 1 is the RLU (ATP Enzyme activity) of cells from mini-PDX vehicles. The cancer cells derived from patients were embedded in the mini-PDX vehicles and implanted in the mice for cultivating 7 days. The mice were treated with MAX-40279(12mpk, PO, BID) or not. After 7 days, cells in mini-PDX vehicles were collected and ATP Enzyme activity was used to represent the cell viability.
# A mini patient-derived xenograft (mini-PDX) is used to assess the sensitivity of different tumors to treatment with Compound 1 (MAX-40279). In this experiment, clinical tumor samples from patients are treated in the mini-PDX by oral administration of Compound 1, and FGFR1OP2 expression level in those samples is analyzed. […]
# as §3
# [3] = test system: cancer patients; test: Clinical efficacy of Compound 1 in cancer patients; set-up: key to CT Observation: Stable Disease, or SD, signifies that there has been no significant decrease or increase in the size of target lesions (including tumors), based on the smallest sum lesion diameter (LD); Progressive Disease, or PD, signifies that there has been an increase of at least 20% in the sum of the LD of targeted lesions; conditions: for CT Observation: per patient
# Experimental: Stable Disease, or SD, signifies that there has been no significant decrease or increase in the size of target lesions (including tumors), based on the smallest sum lesion diameter (LD). Progressive Disease, or PD, signifies that there has been an increase of at least 20% in the sum of the LD of targeted lesions.
# Patients are treated with Compound 1, given orally at the indicated daily dose. […] Although patients were not selected for high expression of FGFR1OP2 and FGFR1, the clinical response appears related to the expression levels of FGFR1OP2 and FGFR1. Squamous tumors seem particularly susceptible, as both patients with squamous tumors are SDs. Two of the three patients with SD are in 100 mg/day group, one of whom has 20% tumor reduction observed at the second and the fourth cycle by CT examination and is still under treatment. Adverse events are mild, so further dose escalation above 120 mg/day can be considered.
# [4] = test system: Cholangiocarcinoma (patient tumor cells in mini-PDX capsules); test: Mini-PDX assay, cholangiocarcinoma; conditions: Compound 1 12 mg per kg oral once daily 7 days, effective = P ≤ 0.05, per patient sample
# Experimental: as §1, §2, §3
# [5] = test system: Gastric Cancer (patient tumor cells in mini-PDX capsules); test: Mini-PDX assay, gastric cancer; conditions: Compound 1 12 mg per kg oral once daily 7 days, effective = P ≤ 0.05, per patient sample
# Experimental: as §1, §2, §3
# [6] = test system: Pancreatic Cancers (patient tumor cells in mini-PDX capsules); test: Mini-PDX assay, pancreatic cancers; conditions: Compound 1 12 mg per kg oral once daily 7 days, effective = P ≤ 0.05, per patient sample
# Experimental: as §1, §2, §3
structure (smiles),measurement,setting,value
COc1cc(F)ccc1-c1c(C)sc2cnc(Nc3cnn(C4CCNCC4)c3)nc12 [Compound 1],Efficacy (P ≤ 0.05),[1],Non-effective; also recorded: effective
same,share of tumor samples from patients in which Compound 1 is effective,"[2]; 30 tumor samples, mini-PDX, 13/30",43%
same,Tumor cell growth inhibition (TCGI),"[2]; FIG. 1, initial screen of 4 samples, 7 days oral administration, compared to placebo",effective TCGI
same,CT Observation,[3]; 40 mg oral daily dose,SD
same,CT Observation,[3]; 70 mg oral daily dose,"PD (Progressive Disease, or PD, signifies that there has been an increase of at least 20% in the sum of the LD of targeted lesions)"
same,tumor reduction by CT examination,"[3]; 100 mg oral daily dose, CRC, observed at second and fourth cycle",20%
same,CT Observation,[3]; 100 mg oral daily dose,"SD (2×) and PD (Progressive Disease, or PD, signifies that there has been an increase of at least 20% in the sum of the LD of targeted lesions)"
same,Adverse events,"[3]; patients, 40-100 mg oral daily dose",mild
same,stabilizes progression of the cancer (patients with SD),"[3]; seven patients, 40-100 mg oral daily dose",three of the seven patients
same,Efficacy (P ≤ 0.05),[4],Non-effective; also recorded: effective
same,Efficacy (P ≤ 0.05),[5],Non-effective; also recorded: effective
same,Efficacy (P ≤ 0.05),[6],Non-effective; also recorded: effective
